US20080206374A1 (priority 2003, published 2008)
Where a name gives a salt, the structure may show the parent alone. Marks after values point to notes of the source that are not given here.

Experiments:
thrombosis in vitro = thrombosis in vitro of rats (Chandler method); format: in vivo; settings: 90 mg/kg i.v., once per day for 3 days
Procedure: (§1) All the animal groups were intravenously injected the medicaments through caudal vein with the said dose of 4 ml/kg, once per day for continuously 3 days. 30 minutes after the final injection, animals were anaesthetized with pentobarbital sodium (30.0 mg/kg). 2 ml blood was then drawn from the abdominal aorta for the measurement of the thrombosis in vitro and 3 ml blood (heparinized) was drawn for the measurement of blood viscosity.
Measurement of the thrombuses in vitro: According to Chandler method in vitro, the blood was immediately filled and sealed in a rotating ring with the volume less than ½ ring (1.8 ml). It was placed on a thrombosis Instrument and rotated for 10 minutes (with experimental temperature of 37° C.). Then the thrombus was spilled out and washed with physiological saline. The length was measured and the wet quality was weighed. The thrombus bar was placed in an 80° C. oven for 3 hours. It was weighed after the weight getting stable.

blood viscosity of rats = format: in vivo; settings: 90 mg/kg i.v., once per day for 3 days
Procedure: as §1
Measurement of the blood viscosity: 0.8 ml blood was taken from the 3 ml blood sample (heparinized) to measure the whole blood viscosity. The rest of the sample was centrifuged at 650×g for 10 minutes. 0.8 ml supernatant was taken to measure the blood plasma viscosity.

Platelet Aggregation = assay: platelet aggregation of rabbits (Born Turbidimetry); format: in vivo; settings: 45 mg/kg i.v. once per day for 3 days
Procedure: Before administration, the artery in ears was punctured and the blood was taken to measure the platelet aggregation rate. According to the level of platelet aggregation and the body weight, the 48 rabbits were randomly divided into 6 groups (8 rabbits per group):
The administration groups were administered medicaments intravenously through ear edges with the said dosages, and the Control group was injected with equivalent volume of 0.9% sodium chloride, once per day for continuously 3 days. After the final medicaments administration, the artery in ears was punctured, the blood sample was taken and the platelet aggregation rate was measured.
The artery in ears was punctured with a siliconized injector to take blood sample, which was anticoagulated with the citron sodium solution (blood:anticoagulant=9:1). The blood sample solution was centrifuged at 200×g for 8 minutes, and the supernatant, that is, the Platelet Rich Plasma (PRP) was taken. The rest of the solution was centrifuged at 2200×g for 10 minutes, and the top clear part, that is, the Platelet Poor Plasma (PPP) was taken. The count of Platelets in PRP was about 4.0×10^5/mm^3. According to the Born Turbidimetry, the turbidity tube with 200 μl PRP and a small magnetic stick was placed in the platelet aggregation instrument and kept at 37° C. for one minute. After PPP being standardized, an inducer was added with stirring to induce the aggregation. The end concentration of the inducer is: 47.6 μM/L (ADP), 782.0 μM/L (M), and […] (Collagen). The influence of the medicaments upon the Platelet Aggregation was analyzed according to the aggregation curves and maximal aggregation rate printed by the instrument. The calculating formula for maximal aggregation rate was as follows:
aggregation=Transmittance after PRP Aggregation−Transmittance before PRP Aggregation×100% rate Transmittance of PPP−Transmittance before PRP Aggregation

[1] = system: experimental acute myocardial ischemia of dogs; assay: experimental acute myocardial ischemia and myocardial infarction of anesthetized dogs (coronary artery ligature); format: in vivo
Procedure: The experimental medicaments were prepared with physiological saline to the same volume (50 ml), and injected through femoral vein at a speed of 5 ml/min with the computer minim syringe pump (Type AJ-5803, Shanghai).
The animals were anaesthetized with pentobarbital sodium (30 mg/kg, i.v), and connected with an electric respirator after tracheal intubation. The chest was opened in the position of the 4th left rib to expose the heart. The pericardium was cut out to make a pericardial bed. The laevorotatory branch of coronary artery was separated and a probe of an electromagnetic flowmeter (Type MF-1100) was placed in to measure the blood flow of coronary artery. The middle section of anterior descending branch of coronary artery was separated and a thread was put through for ligature to make a model of experimental acute myocardium myocardial ischemia. A multipoint fixed epicardium electrode was sewed up and connected with a multirunning physiological recorder (Type RM-6100, Japan Photoelectricity) to display and record the electrocardiogram of epicardium^<1>. The coronary artery was ligated for 15 minutes and recorded as a control value before medicaments administration. The experimental medicaments or physiological saline was injected through the femoral vein. At […] 15, 30, 45, 60, 90, 120, and 180 minutes after medicament administration, 30 measuring points of the epicardium electrocardiogram were recorded. The rising S-T section that is more than 2 mv was taken as a judgment standard to calculate the degree of myocardial ischemia (total mv number of the rising S-T section Σ-ST) and the range of myocardial ischemia (total point number of the rising S-T section N-ST). After intubation through the […] into the coronary vein sinus, the blood oxygen content of coronary vein was measured by a blood oxygen instrument (Type AVL912, Swiss) while the blood samples were taken before ischemia, ischemia 15 min (before administration), at 15, 30, 60, 120, and 180 minutes after medicament administration. Then the animal was intubated into the carotid to measure the blood oxygen content of artery. It was calculated together with the blood flow of coronary artery to measure the myocardial oxygen consumption:
Myocardial oxygen consumption=(blood oxygen content of artery−blood oxygen content of coronary vein)×blood flow of coronary artery/100.
The blood samples were taken at the above-mentioned time points, and then serum creatine phosphate kinase (CK) and lactic dehydrogenase (LDH) were measured with a full-automatic biochemical analyzer (Type RA-1000, USA). And ET, TXB2 and 6-Keto-PGF1 were measured with the Radioimmuno-method and with a full-automatic γ counter (Type FT-630G, Beijing).
When recording was finished at 180 minutes after medicament administration, the heart was taken out immediately, washed with physiological saline and weighed as a whole. Under the ligature line of the heart, the ventricle was cut evenly into 5 pieces parallel to the coronary sulcus. Then the pieces were placed in the N-BT solution and stained at the room temperature for 15 minutes. The infarcted area (N-BT non-stained area) and the non-infarcted area (N-BT stained area) on the lateral sides of each piece of myocardium were measured with a Multimedia Color Pathological Image Analyzing System (Type MPIAS-500, Beijing) The area of each piece of myocardium, the total area of ventricle and the area of the infarcted section were calculated. The percentage of the infarcted area over the ventricle and that over total heart were calculated.
The experimental result was processed statistically and its significance was tested with t-Test.

[2] = system: normally anaesthetized dogs; assay: cardiac hemodynamics and cardiac oxygen consumption of dogs; format: in vivo
Procedure: The experimental medicaments were prepared to the same volume (50 ml) with physiological saline, and injected through femoral vein at a speed of 5 ml/min by the computer minim syringe pump (Type AJ-5803, Shanghai).
The animals were anaesthetized intravenously with pentobarbital sodium (30 mg/kg, i.v), and connected with an electric respirator after tracheal intubation. The chests were opened in the position of the 4th left rib to expose the heart. The pericardium was cut to make a pericardial bed. The laevorotatory branch of coronary artery and the root of aorta were separated and a probe of an electromagnetic flowmeter (Type MF-1100) was placed in to measure the blood flow of coronary artery and cardiac output. The tip of left ventricle was intubated and connected with a pressure energy transducer (MPU-0.5A). The internal pressure of left ventricle was measured with a carrier amplifier (AG-601G), and the maximal ascending rate (dp/dtmax) of the internal pressure of left ventricle was measured with a differentiator (ED-601G). The animals were intubated through the external jugular vein into the coronary vein sinus and also intubated through the carotid. The blood oxygen contents of coronary vein sinus and artery were measured using a blood oxygen instrument (Type AVL912, Swiss) to calculate the myocardial oxygen consumption. Then the femoral artery was intubated to measure the blood pressure of artery. And then with the Standard Limb Lead II of electrocardiogram, the heart rate and the related parameters of electrocardiogram were calculated. With the formula, other indexes of hemodynamics were calculated: cardiac stroke output, oxygen consumption index, cardiac index, resistance of coronary artery, total peripheral resistance and oxygen utility, etc. All the above-mentioned indexes were recorded by a multirunning physiological recorder (Type RM-6000, Japan Photoelectricity) synchronously.
After the operation and the observed indexes being stable, the values before medicament were recorded, and the experimental medicaments were then administered. The values were recorded at 5 minutes of the middle of the process of administration, immediately after, and 1, 3, 5, 10, 15, 30, and 60 minutes after administered medicaments. All the measured indexes and derived parameters were processed statistically. The self-comparisons of the actual measurement values within different time periods after and before administered medicaments were made. Using the t-Test, the changed rate percentages were compared to show the significance between the groups.

[3] = system: myocardial ischemia reperfusion injury of rats; assay: myocardial infarction caused by ischemia reperfusion; format: in vivo; settings: 1.0 mg/kg
Procedure: The medicaments were diluted to desired concentration with physiological saline. The volume of administered medicament was 4 ml/kg. And the medicaments were given through the left femoral vein.
The animals were anaesthetized by pentobarbital sodium (45 mg/kg) through abdominal cavity and fixed in backstroke position. […] The tracheas were cut open, the trachea cannulas were inserted, and tracheas were connected with a respirometer (Type SC-3, Shanghai) for artificial respiration (32/min, with a respiration ratio of 1:3). The 3rd-5th ribs were cut off after opening the chest, and the pericardiums were opened to expose the heart. A suture (suture No. 0) was put through the root of left anterior descending branch of coronary artery for ligature. After the suture being put through stably for 10 minutes, a plastic concave pipe was placed parallel with the blood vessel, which was then ligated (eliminating the ones without changes of ST and T-wave). The experimental medicaments were administered. After 40 minutes, the ligature suture was cut off along the groove to trigger the reperfusion of the anterior descending branch. The chest was then seamed and independent respiration was recovered.
The bloode samples were taken from the ventral aorta to measure the serum SOD and MDA contents after 2 hours of the ligature. The heart was sliced into 5 pieces under heart ligature and was stained by N-BT. Using a Multimedia Pathological Color Image Analyzing System (Type MPIAS-500, Beijing), the areas of the normal myocardiums and the myocardial infraction were calculated. The degree of myocardial infarction was observed. And the experimental results were statistically analyzed (t-Test).

Sarcoma S180 lines = settings: cyclophosphamide alone
Text: Kunming Hybrid mice with weight of 18-22 g were inoculated with Sarcoma S180 lines.
The experimental medicament and animals of this experiment were the same as that of Experimental Example 2.

[4] = Dose/kg 0.5 mg, femoral vein, 180 minutes, N-BT staining
[5] = serum after 2 hours of the ligature
[6] = Herbesser Injection, femoral vein

CC(=O)Oc1ccccc1C(=O)O.NCCCCC(N)C(=O)O (racemic) [Aspirin-DL-Lysine]
Thrombus Dry weight (thrombosis in vitro): 18.9 ± 1.4 mg
Thrombus Length (thrombosis in vitro): 18.8 ± 1.5 mm
Thrombus Wet weight (thrombosis in vitro): 100.1 ± 12.5 mg
Blood viscosity (100 S^−1) (blood viscosity of rats): 2.38 ± 1.12
Whole blood viscosity, High shearing (200 S^−1) (blood viscosity of rats): 3.37 ± 0.58 CP
Whole blood viscosity, Low shearing (5 S^−1) (blood viscosity of rats): 6.35 ± 1.03 CP
Whole blood viscosity, Middle shearing (30 S^−1) (blood viscosity of rats): 4.71 ± 0.95 CP
Whole blood viscosity, Middle shearing (100 S^−1) (blood viscosity of rats): 3.81 ± 0.91 CP
Aggregation Rate After administration (Platelet Aggregation; Inducer AA): 0.24 ± 0.69%
Aggregation Rate Value Difference (after − before) (Platelet Aggregation; Inducer AA): −63.65 ± 7.05 %
Aggregation Rate After administration (Platelet Aggregation; Inducer ADP): 57.78 ± 6.01%
Aggregation Rate Value Difference (after − before) (Platelet Aggregation; Inducer ADP): 8.85 ± 6.37%
Aggregation Rate After administration (Platelet Aggregation; Inducer Collagen): 45.29 ± 5.72%
Aggregation Rate Value Difference (after − before) (Platelet Aggregation; Inducer Collagen): −21.19 ± 4.24 %

CCCCC[C@H](O)/C=C/[C@@H]1[C@@H](CC(=O)CCCCC(=O)O)[C@@H](O)C[C@H]1O [Composition 6-Keto-PGF1, 6-keto-prostaglandin F1α]
myocardial oxygen consumption (in words) ([1]; 15 minutes after given): obviously reduced
cardiac stroke output (in words) ([2]; dog, in vivo): markedly increased the cardiac stroke output
resistance of outer periphery (in words) ([2]; dog, in vivo): reduced the resistance of outer periphery

COc1ccc([C@@H]2Sc3ccccc3N(CCN(C)C)C(=O)[C@@H]2OC(C)=O)cc1 [Herbesser, Diltiazem Hydrochloride]
Infarcted Area [1, 4]: 281.30 ± 159.9*** mm^2
Infarcted Area/heart [1, 4]: 2.27 ± 0.73
Infarcted Area/ventricle [1, 4]: 7.44 ± 2.61
increasing activity of serum CK and LDH caused by myocardial ischemia and infarction (in words) ([1]; Herbesser, composition 2.4 g crude drug/kg, P<0.05 vs physiological saline): significantly inhibited
blood flow of coronary artery (in words) ([1]; after ligature of the coronary artery): evident effect of increasing blood flow of coronary artery
ET activity in plasma caused by myocardial ischemia and infarction (in words) ([1]; dog, in vivo): obvious inhibiting effect on the ET activity
blood oxygen content of vein sinus (in words) ([1]; no statistical meaning): effect trend of increasing blood oxygen content of vein sinus
Infarcted Area/heart ([3]; left femoral vein): 16.6 ± 2.6
Infarcted Area/ventricle % ([3]; left femoral vein): 21.6 ± 4.3 %
The area of myocardial infraction ([3]; left femoral vein): 61.72 ± 9.68** mm^2
Weight of Infarcted Area ([3]; left femoral vein): 0.154 ± 0.027 g
MDA content of blood serum [3, 5]: 2.35 ± 0.07 µmol/L
SOD content of blood serum [3, 5]: 660.9 ± 159.7 ng/mL
blood flow and resistance of coronary artery (in words) ([2]; Herbesser Injection): markedly increased the blood flow and the resistance of coronary artery
arterial blood pressure (in words) [2, 6]: obvious effect of reducing blood pressure
heart rate (in words) [2, 6]: slowing down heart rate

O=P1(N(CCCl)CCCl)NCCCO1 (centres unmarked) [cyclophosphamide]
tumor body (M ± SD) (Sarcoma S180 lines): 0.89 ± 0.55 volume %
Rate of Inhibiting tumors (Sarcoma S180 lines; compared with the Blank Control group): 65%Δ
